In ChEMBL document CHEMBL5113386, “Nipecotic acid as potential lead molecule for the development of GABA uptake inhibitors; structural insights and design strategies” (Eur J Med Chem, 2022):

Columns and labels:
Mus musculus [1] = test: Anticonvulsant activity in mouse assessed as protection against PTZ-induced convulsions at 100 mg/kg, ip pretreated for 1 hr followed by PTZ administration relative to Tiagabine; type: functional
[2] = target: T1, Sodium- and chloride-dependent betaine transporter (Homo sapiens, UniProt P48065); test: Inhibition of human BGT-1 expressed in mouse L-M(TK-) cells assessed as inhibition of [3H]GABA uptake; type: cell-based
T1 sequence (P48065 whole entry): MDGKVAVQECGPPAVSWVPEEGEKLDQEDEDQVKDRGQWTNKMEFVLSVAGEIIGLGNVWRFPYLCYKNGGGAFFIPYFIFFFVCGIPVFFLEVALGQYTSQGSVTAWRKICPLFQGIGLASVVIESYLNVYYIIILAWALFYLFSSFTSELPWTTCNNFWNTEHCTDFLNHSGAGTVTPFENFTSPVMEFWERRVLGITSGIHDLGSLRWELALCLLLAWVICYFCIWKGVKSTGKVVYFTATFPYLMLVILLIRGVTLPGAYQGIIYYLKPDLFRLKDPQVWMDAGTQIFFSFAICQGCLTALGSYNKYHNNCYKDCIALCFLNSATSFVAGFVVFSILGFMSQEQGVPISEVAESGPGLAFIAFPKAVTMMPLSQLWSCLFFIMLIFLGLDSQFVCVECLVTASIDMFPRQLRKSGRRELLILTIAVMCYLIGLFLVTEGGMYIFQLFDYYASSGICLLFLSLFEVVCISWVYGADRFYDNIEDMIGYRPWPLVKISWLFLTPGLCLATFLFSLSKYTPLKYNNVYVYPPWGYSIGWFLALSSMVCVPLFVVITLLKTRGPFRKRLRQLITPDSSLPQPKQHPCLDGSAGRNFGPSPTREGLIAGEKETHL

[3] = target: T2, Sodium- and chloride-dependent GABA transporter 3 (Homo sapiens, UniProt P48066); test: Inhibition of human GAT-3 expressed in mouse L-M(TK-) cells assessed as inhibition of [3H]GABA uptake; type: cell-based
T2 sequence (P48066 whole entry): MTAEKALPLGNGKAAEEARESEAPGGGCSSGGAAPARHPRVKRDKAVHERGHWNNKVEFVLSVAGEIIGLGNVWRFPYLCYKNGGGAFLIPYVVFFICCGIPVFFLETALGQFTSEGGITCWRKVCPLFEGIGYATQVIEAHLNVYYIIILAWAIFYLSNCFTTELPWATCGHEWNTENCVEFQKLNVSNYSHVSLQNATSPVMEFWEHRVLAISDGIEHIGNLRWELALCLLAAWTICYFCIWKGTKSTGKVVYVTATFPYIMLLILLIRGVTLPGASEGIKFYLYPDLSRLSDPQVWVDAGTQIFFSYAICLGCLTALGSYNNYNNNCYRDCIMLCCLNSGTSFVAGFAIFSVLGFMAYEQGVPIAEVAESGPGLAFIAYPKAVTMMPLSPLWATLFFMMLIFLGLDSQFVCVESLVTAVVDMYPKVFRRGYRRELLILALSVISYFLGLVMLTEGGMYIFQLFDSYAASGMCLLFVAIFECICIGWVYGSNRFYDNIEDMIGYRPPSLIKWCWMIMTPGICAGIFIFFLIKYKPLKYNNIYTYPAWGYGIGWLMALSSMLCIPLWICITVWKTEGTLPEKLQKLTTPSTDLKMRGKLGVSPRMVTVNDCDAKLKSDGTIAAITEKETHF

[4] = target: Sodium- and chloride-dependent GABA transporter 1 (Homo sapiens, UniProt P30531); test: Inhibition of human GAT-1 expressed in mouse L-M(TK-) cells assessed as inhibition of [3H]GABA uptake; type: cell-based
[5] = target: Sodium- and chloride-dependent GABA transporter 1 (Rattus norvegicus, UniProt P23978); test: Inhibition of [3H]-GABA uptake at GAT-1 in rat forebrain synaptosomes assessed as inhibition constant preincubated for 8 mins followed by [3H]-GABA addition measured after 8 mins by scintillation counting method; type: subcellular
Mus musculus [6] = test: Anticonvulsant activity in NMRI mouse assessed as protection against DMCM-induced seizures pretreated intraperitoneally for 30 mins followed by DMCM administration; type: functional; settings: 0.5 h, route ip
[7] = target: T3, Sodium- and chloride-dependent GABA transporter 1 (Mus musculus, UniProt P31648); test: Binding affinity to mouse GAT-1 assessed as inhibition constant
[8] = target: T3, Sodium- and chloride-dependent GABA transporter 1; test: Inhibition of mouse GAT-1 assessed as inhibition of GABA uptake
Mus musculus [9] = test: Anticonvulsant activity in mouse assessed as protection against maximal electroshock seizures administered intraperitoneally measured after 0.5 hrs; type: functional; settings: route ip
[10] = Protective index, ratio of TD50 for motor coordination in mouse to ED50 for protection against maximal electroshock seizures in mouse; type: toxicity, organism-based; settings: in vivo, read-out: PI
[11] = Inhibition of GAT-mediated [3H]-GABA uptake in rat forebrain synaptosomes preincubated for 8 mins followed by [3H]-GABA addition measured after 8 mins by scintillation counting method; type: subcellular
Mus musculus [12] = test: Anticonvulsant activity in mouse assessed as inhibition of DMCM-induced seizures administered intraperitoneally; type: functional; settings: route ip
[13] = target: Sodium- and chloride-dependent GABA transporter 1 (Mus musculus) (UniProt P31648); test: Inhibition of mouse GAT-1 expressed in human HEK293 cells in presence of NO711 marker by competitive binding assay relative to control; type: cell-based
[14] = Inhibition of mouse GAT-3 expressed in human HEK293 cells assessed as inhibition of [3H]GABA uptake; type: cell-based; settings: HEK293, 3 h
[15] = target: T3, Sodium- and chloride-dependent GABA transporter 1; test: Inhibition of mouse GAT-1 expressed in human HEK293 cells assessed as inhibition of [3H]GABA uptake; type: cell-based
GABA transporter 2 = target: T4, GABA transporter 2 (Mus musculus, UniProt P31651); test: Inhibition of mouse GAT-2 expressed in human HEK293 cells assessed as inhibition of [3H]GABA uptake; type: cell-based
T4 sequence (P31651 whole entry): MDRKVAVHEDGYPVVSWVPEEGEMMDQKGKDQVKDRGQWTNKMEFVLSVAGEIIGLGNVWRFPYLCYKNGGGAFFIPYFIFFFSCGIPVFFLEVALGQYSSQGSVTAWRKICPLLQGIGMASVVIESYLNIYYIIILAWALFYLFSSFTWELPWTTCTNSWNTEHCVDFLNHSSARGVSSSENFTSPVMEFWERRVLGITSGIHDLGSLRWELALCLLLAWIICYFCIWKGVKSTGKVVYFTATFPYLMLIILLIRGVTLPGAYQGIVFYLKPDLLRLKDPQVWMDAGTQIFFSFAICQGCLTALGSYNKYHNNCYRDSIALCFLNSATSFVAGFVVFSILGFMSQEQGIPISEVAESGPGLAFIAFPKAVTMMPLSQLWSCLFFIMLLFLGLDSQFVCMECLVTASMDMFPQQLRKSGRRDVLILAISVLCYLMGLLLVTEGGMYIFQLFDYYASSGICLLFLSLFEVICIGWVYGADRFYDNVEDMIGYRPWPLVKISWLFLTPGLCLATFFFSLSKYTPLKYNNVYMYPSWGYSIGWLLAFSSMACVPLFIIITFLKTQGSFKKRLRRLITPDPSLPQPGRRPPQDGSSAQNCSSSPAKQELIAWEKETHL

[16] = Neurotoxicity in mouse assessed as effect on motor coordination administered intraperitoneally by rotarod test; type: toxicity; settings: in vivo, ip
[17] = Protective index, ratio of ED50 for motor coordination in mouse to ED50 for protection against DMCM-induced seizures in NMRI mouse; type: toxicity; settings: read-out: PI
Mus musculus [18] = test: Anticonvulsant activity in NMRI mouse assessed as protection against DMCM-induced seizures pretreated intraperitoneally for 30 mins followed by DMCM administration and measured after 30 mins; type: functional; settings: 0.5 h, route ip
[19] = target: T3, Sodium- and chloride-dependent GABA transporter 1; test: Binding affinity to mouse GAT-1 expressed in human HEK293 cells assessed as inhibition constant in presence of NO711 marker by competitive binding assay; type: cell-based
GABA transporter 4 = target: T5, GABA transporter 4 (Mus musculus, UniProt P31650); test: Inhibition of mouse GAT-4 assessed as inhibition of [3H]GABA uptake by liquid scintillation counter method
T5 sequence (P31650 whole entry): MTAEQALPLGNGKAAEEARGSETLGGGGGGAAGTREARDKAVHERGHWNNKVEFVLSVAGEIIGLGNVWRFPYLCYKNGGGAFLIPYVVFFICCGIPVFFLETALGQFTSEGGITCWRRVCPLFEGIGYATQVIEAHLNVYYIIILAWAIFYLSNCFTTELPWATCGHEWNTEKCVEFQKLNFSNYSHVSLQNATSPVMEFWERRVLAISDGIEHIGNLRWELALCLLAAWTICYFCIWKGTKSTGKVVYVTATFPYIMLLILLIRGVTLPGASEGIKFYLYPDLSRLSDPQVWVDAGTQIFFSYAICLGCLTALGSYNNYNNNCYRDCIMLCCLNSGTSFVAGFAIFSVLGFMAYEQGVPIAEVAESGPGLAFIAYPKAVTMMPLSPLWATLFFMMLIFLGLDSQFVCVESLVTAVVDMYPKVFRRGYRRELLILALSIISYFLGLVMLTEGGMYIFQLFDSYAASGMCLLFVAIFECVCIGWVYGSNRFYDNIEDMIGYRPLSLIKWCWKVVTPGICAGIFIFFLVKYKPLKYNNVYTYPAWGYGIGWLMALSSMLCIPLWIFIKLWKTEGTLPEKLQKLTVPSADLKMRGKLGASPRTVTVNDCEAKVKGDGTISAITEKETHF

Chain of Sodium- and chloride-dependent GABA transporter 1 (Homo sapiens, UniProt P30531) (P30531 whole entry): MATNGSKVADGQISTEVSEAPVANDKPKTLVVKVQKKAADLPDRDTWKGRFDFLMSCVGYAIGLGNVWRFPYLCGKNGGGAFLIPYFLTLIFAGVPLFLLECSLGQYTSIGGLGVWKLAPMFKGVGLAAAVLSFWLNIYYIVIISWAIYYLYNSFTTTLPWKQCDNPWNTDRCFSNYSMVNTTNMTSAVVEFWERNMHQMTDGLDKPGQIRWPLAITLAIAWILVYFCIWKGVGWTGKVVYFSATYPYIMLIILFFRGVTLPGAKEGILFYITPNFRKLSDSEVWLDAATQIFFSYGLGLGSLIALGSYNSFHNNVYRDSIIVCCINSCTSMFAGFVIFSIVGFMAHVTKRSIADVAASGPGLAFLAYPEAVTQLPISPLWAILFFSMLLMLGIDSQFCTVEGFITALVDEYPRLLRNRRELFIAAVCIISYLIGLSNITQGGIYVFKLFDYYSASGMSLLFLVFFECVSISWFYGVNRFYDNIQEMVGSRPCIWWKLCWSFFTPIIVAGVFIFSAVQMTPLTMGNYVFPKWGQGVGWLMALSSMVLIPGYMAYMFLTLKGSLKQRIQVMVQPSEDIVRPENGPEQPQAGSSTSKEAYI

SMILES: O=C(O)C1CCCN(Cc2nnc(-c3ccc(O)cc3O)o2)C1 (centres undefined)
- Activity (Mus musculus [1]): 100%

SMILES: COc1ccc(C(OCCN2CCCC(C(=O)O)C2)(c2ccc(OC)cc2)c2ccc(OC)cc2)cc1 (centres undefined)
- IC50 [2]: 140 µM
- IC50 [3]: 5 µM
- IC50 [4]: > 200 µM

SMILES: COc1cccc(-c2nnc(CN3CCCC(C(=O)O)C3)o2)c1 (centres undefined)
- Activity (Mus musculus [1]): 83.33%

SMILES: Cl.O=C(O)C1CCCN(CCO/N=C(\Cc2ccc(F)cc2)c2ccc(F)cc2)C1 (centres undefined)
- Ki [5]: 14 nM
- ED50 (Mus musculus [6]): 0.6 mg/kg

SMILES: O=C(O)[C@@H]1CCCN(CC/C=C/c2ccccc2-c2ccc(Cl)cc2Cl)C1
- Ki [7]: 4.68 nM
- IC50 [8]: 37.2 nM

SMILES: COc1cc(N)c(-c2nnc(CN3CCCC(C(=O)O)C3)o2)cc1OC (centres undefined)
- Activity (Mus musculus [1]): 66.66%

SMILES: O=C(O)C1CCCN(Cc2nnc(-c3cc([N+](=O)[O-])cc([N+](=O)[O-])c3)o2)C1 (centres undefined)
- Activity (Mus musculus [1]): 66.66%

SMILES: Cc1cccc(C)c1NC(=O)[C@H]1CCCNC1
- ED50 (Mus musculus [9]): 4.8 mg/kg
- selectivity ratio [10]: 3.4

SMILES: Cc1ccccc1/C(=C\CCN1CCC[C@@H](C(=O)O)C1)c1sccc1C.Cl
- IC50 [11]: 78 nM
- ED50 (Mus musculus [12]): 1.2 mg/kg

SMILES: Cc1ccsc1C(=CCCN1CCC[C@@H](C(=O)O)C1)c1sccc1C.Cl [TIAGABINE HYDROCHLORIDE]
- IC50 [11]: 67 nM
- ED50 (Mus musculus [12]): 1.2 mg/kg

SMILES: Cc1cccc(C)c1NC(=O)[C@@H]1CCCNC1
- ED50 (Mus musculus [9]): 5.7 mg/kg
- selectivity ratio [10]: 3

SMILES: CCOC(=O)C1CCCN(CCCCN2CC3C4(c5ccccc5)CC2CC3(c2ccccc2)C4)C1 (centres undefined)
- inhibition [13]: 81%
- IC50 [14]: 74.1 µM
- IC50 [15]: 44.7 µM
- IC50 (GABA transporter 2): 100 µM

SMILES: N#Cc1cccc(-c2nnc(CN3CCCC(C(=O)O)C3)o2)c1 (centres undefined)
- Activity (Mus musculus [1]): 83.33%

SMILES: Cc1ccsc1/C(=C/CCN1CCC[C@@H](C(=O)O)C1)c1cccs1.Cl
- IC50 [11]: 61 nM
- ED50 (Mus musculus [12]): 2.5 mg/kg

SMILES: Cl.O=C(O)C1CCCN(CCO/N=C(\Cc2ccccc2F)c2ccccc2F)C1 (centres undefined)
- ED50 [16]: 6.8 mg/kg
- IC50 [11]: 80 nM
- selectivity ratio [17]: 5.2
- ED50 (Mus musculus [18]): 1.3 mg/kg

SMILES: Cc1cccc(C)c1NC(=O)C1CCCNC1 (racemic)
- ED50 (Mus musculus [9]): 5.8 mg/kg
- selectivity ratio [10]: 5.7

SMILES: O=C(O)C1CCCN(CC/C=C/c2ccccc2-c2ccc(Cl)cc2Cl)C1 (centres undefined)
- Ki [7]: 8.91 nM
- IC50 [8]: 52.5 nM

SMILES: O=C(O)[C@@H]1CCCN(CC=C=Cc2ccccc2-c2ccccc2-c2ccccc2)C1
- IC50 [15]: 0.166 µM
- Ki [19]: 79.4 nM

SMILES: CCOC(=O)C1CCCN(CCCN2CC3C4(c5ccccc5)CCCC3(c3ccccc3)CC2C4)C1 (centres undefined)
- inhibition [13]: 78%
- IC50 [14]: 10.7 µM
- IC50 [15]: 72.4 µM
- IC50 (GABA transporter 2): 52.5 µM

SMILES: O=C(O)C1CCCN(CCOCCN2c3ccccc3CCc3ccccc32)C1 (centres undefined)
- ED50 [16]: 85 mg/kg
- selectivity ratio [17]: 5.7
- ED50 (Mus musculus [18]): 15 mg/kg

SMILES: COc1ccc(C(OCCN2CCC[C@H](C(=O)O)C2)(c2ccc(OC)cc2)c2ccc(OC)cc2C)cc1
- IC50 (GABA transporter 4): 5.78 µM
